Several values for one entry are separate records, joined by “and”; a condition that tells them apart may be missing. Identical values can stand only once.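 Interpolation was linear, between the two tested concentrations surrounding the appropriate level; five concentrations were tested over 48 hours in 96-well plates. At the GI50, growth is halved. TGI: concentration producing complete growth inhibition.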

Holding throughout (assay): NCI-60 cell line screen, 48 h
Assay [1] relates to LOX IMVI melanoma.
Assay [2] deals with NCI-H460 lung.
Assay [3] relates to SF-539 CNS.
Assay [4] concerns 786-0 renal.
Assay [5] relates to OVCAR-5 ovarian.
Assay [6] concerns OVCAR-3 ovarian.
Assay [7] concerns SK-OV-3 ovarian.
The subject of assay [8] is M14 melanoma.
The subject of assay [9] is ACHN renal.
The test system of assay [10] is UACC-257 melanoma.

As to `CC(=O)N1CC(Nc2ccc(OC(F)(F)F)cc2)=CC1=O`, the GI50 in assay [1] is 2.32 µM; in assay [2], 0.696 µM; in [3], 1.31 µM; in [4], 3.27 µM; in assay [5], more than 100 µM; in [6] it was 1.19 µM. For the same compound, the GI50 in [7] is 3.53 µM; in assay [8], 0.535 µM; in assay [9], 8.27 µM; in assay [10] it was more than 100 µM. The TGI in assay [1] was more than 100 µM; in assay [2], more than 100 µM; in assay [3], 9.01 µM; in [4], more than 100 µM; in assay [5], more than 100 µM; in [6], 4.03 µM. Also, the TGI in assay [7] is more than 100 µM; in [8], 6.71 µM; in [9], more than 100 µM; in [10], more than 100 µM.
In the case of `CC1=CC(=O)CCC2(C)C1CC[C@@H]2OC=O` (stereo partly drawn), the TGI in assay [1], in assay [2], in assay [3], in assay [4], in [5] and in [6] was more than 100 µM each time. Moreover, the TGI in [7], in [8], in assay [9] and in [10] was more than 100 µM in each case.
With `CC(=O)C1CC=C(C)CC1` (stereo not drawn), the TGI in assay [1], in [2], in assay [3], in [4], in assay [5] and in assay [6] was more than 100 µM each time. Moreover, the TGI in assay [7], in assay [8], in [9] and in [10] was more than 100 µM in each case.
Regarding `COc1ccc(NC(=O)n2nc(N)c3ccccc32)cc1OC`, the GI50 in assay [1] was 49.3 µM; in assay [2] it was 34.5 µM; in assay [3] it was 95.9 µM; in assay [4], more than 100 µM; in [5] it was 45.5 µM; in assay [6] it was 92 µM. For the same compound, the GI50 was more than 100 µM in assay [7], 65 µM in assay [8], 58.3 µM in [9] and 73.6 µM in assay [10]. Moreover, the TGI in assay [1], in [2], in assay [3], in [4], in [5] and in assay [6] was more than 100 µM each time. For the same compound, the TGI in [7], in [8], in assay [9] and in [10] was more than 100 µM throughout.
In the case of `C=C/C=C(\NC(=O)C(Cl)(Cl)Cl)[Si](C)(C)C`, the TGI in assay [1], in assay [2], in [3], in assay [4], in assay [5] and in assay [6] was more than 100 µM in each case. Besides, the TGI in assay [7], in assay [8], in assay [9] and in [10] was more than 100 µM throughout.
For `NC(N)=NS(=O)(=O)c1ccc(NCc2c3ccccc3nc3ccccc23)cc1`, the TGI in assay [1] was 58 µM; in assay [2], 19.2 µM; in [3] it was 4.72 µM; in assay [4], 9.65 µM; in [5], more than 100 µM; in assay [6] it was 49.6 µM. In addition, the TGI in assay [7] is 27.3 µM; in assay [8] it was 64.7 µM; in assay [9], 30.5 µM; in assay [10], more than 69.3 µM.
As for `CC(=O)OC1CC(n2cc(F)c(=O)[nH]c2=O)OC1CO` (stereo not drawn), the TGI in [1] is more than 63.8 µM; in [2], more than 100 µM; in [3], 5.02 µM; in assay [4], more than 62.5 µM; in [5], more than 100 µM; in [6], more than 100 µM. Further, the TGI was more than 100 µM in assay [7], 45.6 µM in assay [8], more than 77.8 µM in assay [9] and more than 100 µM in assay [10].
Consider `NS(=O)(=O)c1cc2c(cc1Cl)NC(Cc1ccccc1)NS2(=O)=O` (stereo not drawn), for which the TGI in [1], in assay [2], in assay [3], in assay [4], in [5] and in assay [6] was more than 100 µM each time. Also, the TGI in assay [7], in assay [8], in assay [9] and in assay [10] was more than 100 µM throughout.
`COc1ccc(/C(=N/NC(=O)NN)C(c2ccc(OC)cc2)C2(O)CNc3c(Cl)cc(Cl)cc32)cc1` (stereo not drawn): the TGI in [1], in assay [2], in [3], in [4], in assay [5] and in assay [6] was more than 100 µM in each case. In addition, the TGI in assay [7], in assay [8], in [9] and in assay [10] was more than 100 µM in each case.
Take `CCn1cc(/C=C/C(C)c2cn(CC)c(=O)[nH]c2=O)c(=O)[nH]c1=O` (stereo not drawn): the TGI in assay [1], in [2], in [3], in assay [4], in assay [5] and in [6] was more than 100 µM throughout. Besides, the TGI in assay [7], in [8], in assay [9] and in [10] was more than 100 µM in each case.
Consider `C1CCN(CCC2CCCCN2)CC1` (stereo not drawn), for which the TGI in [1], in assay [2], in assay [3], in assay [4], in assay [5] and in assay [6] was more than 100 µM throughout. Further, the TGI in [7], in assay [8], in assay [9] and in [10] was more than 100 µM throughout.
Turning to `CN1CCCNc2c(c(=O)c2=O)NCCCN(C)CCCNc2c(c(=O)c2=O)NCCCN(C)CCCNc2c(c(=O)c2=O)NCCCN(C)CCCNc2c(c(=O)c2=O)NCCCN(C)CCCNc2c(c(=O)c2=O)NCCCN(C)CCCNc2c(c(=O)c2=O)NCCCN(C)CCCNc2c(c(=O)c2=O)NCCC1`, the GI50 in assay [1] was 10.5 µM; in assay [2], 3.9 µM; in [3], 1.89 µM; in [4], 4.29 µM; in assay [5] it was 9.32 µM; in [6] it was 4.39 µM. Moreover, the GI50 in assay [7] was 2.46 µM; in assay [8] it was 6.86 µM; in assay [9] it was 1.66 µM; in assay [10], 3.61 µM. Further, the TGI in [1] is more than 50 µM; in assay [2], more than 50 µM; in assay [3] it was 7.69 µM; in assay [4], 15.1 µM; in assay [5], 20.6 µM; in assay [6], 15.1 µM. Moreover, the TGI in assay [7] is 8.29 µM; in assay [8], 18.6 µM; in assay [9], 6.87 µM; in assay [10] it was 27 µM.
Turning to `CC1/C=C/C=C/C=C/C=C/C=C/C=C/C=C/C(O[C@@H]2O[C@H](C)[C@H](O)[C@@H](O)[C@@H]2N)CC(O)C(C(=O)O)C(O)CC(=O)CC(O)CC(O)CC(O)CC(=O)CCCC(=O)CC(=O)OC1C(C)CC(C)C(O)CC(=O)c1ccc(N)cc1` (stereo partly drawn), the GI50 in assay [1] is 0.0555 µM and 0.166 µM; in [2] it was 0.0611 µM and 0.229 µM; in [3], 0.0604 µM and 0.481 µM; in assay [4], 0.0591 µM and 0.172 µM; in assay [5] it was 0.0792 µM and 0.357 µM; in [6], 0.0631 µM and 0.374 µM. The GI50 in assay [7] is 0.0674 µM and 0.298 µM; in assay [8], 0.0574 µM and 0.197 µM; in [9] it was 0.057 µM and 0.18 µM; in [10] it was 0.0544 µM and 0.233 µM. In addition, the TGI in assay [1] was 0.101 µM and 0.305 µM; in [2], 0.11 µM and 0.633 µM; in [4], 0.111 µM and 0.346 µM; in assay [5], 0.216 µM and 1.3 µM; in [7] it was 0.119 µM and 0.908 µM; in assay [8] it was 0.11 µM and 0.416 µM. Besides, the TGI is 0.106 µM and 0.319 µM in assay [9]; 0.101 µM and 0.612 µM in assay [10].
Consider `C=C(C)[C@@H]1CC[C@]2(C)[C@H](C(=O)C=C3[C@@H]4C[C@](C)(C(=O)N5CCN(C)CC5)CC[C@]4(C)CC[C@]32C)[C@@]1(C)CCC#N`, for which the GI50 is 6.24 µM in assay [1]; 6.48 µM in assay [2]; 6.3 µM in assay [3]; 7.03 µM in assay [4]; 7.01 µM in assay [5]; 6.33 µM in [6]. Further, the GI50 is 6.03 µM in assay [7], 6.86 µM in assay [8], 7.02 µM in assay [9] and 6.39 µM in assay [10]. The TGI amounted to 12.6 µM in assay [1]; 13.9 µM in [2]; 12.7 µM in assay [3]; 13.7 µM in assay [4]; 13.6 µM in assay [5]; 13.2 µM in assay [6]. Also, the TGI in assay [7] amounted to 12.5 µM; in assay [8] it was 14.1 µM; in [9], 13.5 µM; in [10], 13.9 µM.
As for `CCCN(CCCC(NC(C)=O)C(=O)NCc1ccccc1)C(=O)NC` (stereo not drawn), the TGI in assay [1], in assay [2], in assay [3], in assay [4], in assay [5] and in assay [6] was more than 100 µM each time. For the same compound, the TGI in assay [7], in [8], in assay [9] and in assay [10] was more than 100 µM throughout.
Turning to `CCCCCC(O)C1C(=O)OC(C)C(O)/C=C/C=C/C=C/C=C\C=C(\C)C(O)CC(O)CC(O)CC(O)CC(O)CC(O)CC1O` (stereo not drawn), the GI50 in [1], in assay [2], in assay [3], in assay [4], in [5] and in [6] was more than 100 µM throughout. In addition, the GI50 in assay [7], in [8], in assay [9] and in [10] was more than 100 µM in each case. For the same compound, the TGI in assay [1], in assay [2], in assay [3], in assay [4], in [5] and in [6] was more than 100 µM throughout. Moreover, the TGI in [7] was more than 100 µM; in assay [8], more than 100 µM; in assay [9], more than 100 µM; in assay [10], 50 µM and > 100 µM.
`C/C(=N\NC(=O)c1ccncc1)c1ccc2ccccc2c1O`: the TGI was more than 100 µM in assay [1]; 20.4 µM in assay [2]; 23.2 µM in assay [3]; 48.4 µM in [4]; more than 100 µM in assay [5]; 3.59 µM in assay [6]. Moreover, the TGI in [7] is more than 60.7 µM; in assay [8] it was 38.2 µM; in assay [9], more than 100 µM; in [10], 24.6 µM.
For `N#CC(C(=O)/C(=N\Nc1nc(=S)[nH]n1N)C(C#N)c1ccc(Cl)cc1)c1ccc(Cl)cc1` (stereo not drawn), the TGI in assay [1], in assay [2], in [3], in [4], in assay [5] and in assay [6] was more than 100 µM in each case. Moreover, the TGI in assay [7], in assay [8], in assay [9] and in [10] was more than 100 µM each time.
In the case of `CC(C)CCOc1ccc(-c2n[nH]c(C(F)(F)F)c2-c2cncc(C#N)c2)c(O)c1`, the GI50 in assay [1] was 2.77 µM; in [2] it was 2.5 µM; in assay [3], 2.8 µM; in assay [4], 2.96 µM; in assay [5], 3.21 µM; in assay [6], 3.17 µM. For the same compound, the GI50 is 2.2 µM in assay [7], 2.49 µM in assay [8], 2.54 µM in assay [9] and 1.69 µM in assay [10]. Also, the TGI in [1] is 8.98 µM; in assay [2] it was 12.5 µM; in assay [3], 16.7 µM; in assay [4], 13.1 µM; in assay [5], more than 100 µM; in [6], 16.3 µM. The TGI was 6.6 µM in [7], 9.13 µM in assay [8], 9.02 µM in assay [9] and 5.54 µM in assay [10].

The values above are taken from PubChem BioAssay (NCI).
